The values that follow come from ChEMBL document CHEMBL1275444, “Fitness trade-offs in blaTEM evolution” (2008).

One may read the MIC as the lowest concentration that inhibits growth of the organism. Low values mean a more susceptible organism, high ones a less susceptible organism. Usually inhibition stands for the change of the read-out against control, counted positive when it falls.

≈ marks a conversion by molar mass, not a printed value.

Assay [1] relates to Escherichia coli. Description: Antibacterial activity against Escherichia coli TP1 harboring pBR322 carrying TEM-12 by broth microdilution method. The format is functional.
Assay [2] has as its system Escherichia coli. Description: Antibacterial activity against Escherichia coli TP1 harboring pBR322 carrying TEM-1 assessed as bacterial density at 512 ug/ml after 18 hrs. It is filed as functional.
Assay [3] has as its system Escherichia coli. The assay is described as follows: Antibacterial activity against Escherichia coli TP1 harboring pBR322 carrying TEM-10 assessed as bacterial density at 512 ug/ml after 18 hrs. It is filed as functional.
The test system of assay [4] is Escherichia coli. Description: Antibacterial activity against Escherichia coli TP1 harboring pBR322 carrying TEM-12 assessed as bacterial density at 512 ug/ml after 18 hrs. The format is functional.
In assay [5] the test system is Escherichia coli. Description: Antibacterial activity against Escherichia coli TP1 harboring pBR322 carrying TEM-1 assessed as bacterial density at 1024 ug/ml after 18 hrs. It is filed as functional.
The subject of assay [6] is Escherichia coli. Description: Antibacterial activity against Escherichia coli TP1 harboring pBR322 carrying TEM-10 assessed as bacterial density at 1024 ug/ml after 18 hrs. It is filed as functional.
For assay [7], the system named is Escherichia coli. Description: Antibacterial activity against Escherichia coli TP1 harboring pBR322 carrying TEM-12 assessed as bacterial density at 1024 ug/ml after 18 hrs. The format is functional.
Assay [8] deals with Escherichia coli. The assay is described as follows: Antibacterial activity against Escherichia coli TP1 harboring pBR322 carrying TEM-1 assessed as bacterial density at 2048 ug/ml after 18 hrs relative to control. The format is functional.
Assay [9] deals with Escherichia coli. Description: Antibacterial activity against Escherichia coli TP1 harboring pBR322 carrying TEM-10 assessed as bacterial density at 2048 ug/ml after 18 hrs relative to control. It is filed as functional.
For assay [10], the system named is Escherichia coli. Description: Antibacterial activity against Escherichia coli TP1 harboring pBR322 carrying TEM-12 assessed as bacterial density at 2048 ug/ml after 18 hrs relative to control. It is filed as functional.
Assay [11] concerns Escherichia coli. The assay is described as follows: Antibacterial activity against Escherichia coli TP1 harboring pBR322 carrying TEM-1 assessed as inhibition of bacterial growth at 4096 ug/ml after 18 hrs. The format is functional. The settings on record: TP1, 18 h.
In assay [12] the test system is Escherichia coli. Description: Antibacterial activity against Escherichia coli TP1 harboring pBR322 carrying TEM-10 assessed as inhibition of bacterial growth at 4096 ug/ml after 18 hrs. The settings on record: TP1, 18 h. It is filed as functional.
Assay [13] concerns Escherichia coli. Description: Antibacterial activity against Escherichia coli TP1 harboring pBR322 carrying TEM-12 assessed as inhibition of bacterial growth at 4096 ug/ml after 18 hrs. It is filed as functional. The settings on record: TP1, 18 h.
In assay [14] the test system is Escherichia coli. The assay is described as follows: Antibacterial activity against Escherichia coli TP1 by broth microdilution method. For orientation: In broth dilution the organism is exposed to a series of concentrations in liquid medium.
Assay [15] concerns Escherichia coli. Description: Antibacterial activity against Escherichia coli TP1 harboring pBR322 carrying TEM-1 by broth microdilution method. It is filed as functional.
For assay [16], the system named is Escherichia coli. Description: Antibacterial activity against Escherichia coli TP1 harboring pBR322 carrying TEM-10 by broth microdilution method. The format is functional.
Assay [17] concerns Escherichia coli. The assay is described as follows: Antibacterial activity against Escherichia coli TP1 harboring pBR322 carrying TEM-1 assessed as inhibition of bacterial growth at 2 ug/ml after 18 hrs. The format is functional. The settings on record: TP1, 18 h.
Assay [18] has as its system Escherichia coli. The assay is described as follows: Antibacterial activity against Escherichia coli TP1 harboring pBR322 carrying TEM-10 assessed as bacterial density up to 64 ug/ml after 18 hrs. The format is functional.
Assay [19] relates to Escherichia coli. The assay is described as follows: Antibacterial activity against Escherichia coli TP1 harboring pBR322 carrying TEM-10 assessed as inhibition of bacterial growth at 256 ug/ml after 18 hrs. It is filed as functional. The settings on record: TP1, 18 h.
Assay [20] deals with Escherichia coli. Description: Antibacterial activity against Escherichia coli TP1 harboring pBR322 carrying TEM-12 assessed as inhibition of bacterial growth at 64 ug/ml after 18 hrs. It is filed as functional. Particulars: TP1, 18 h.
Assay [21] relates to Escherichia coli. The assay is described as follows: Antibacterial activity against Escherichia coli TP1 harboring pBR322 carrying TEM-12 assessed as inhibition of bacterial growth at 256 ug/ml after 18 hrs. It is filed as functional. The settings on record: TP1, 18 h.

For the compound `CC1(C)S[C@@H]2[C@H](NC(=O)[C@H](N)c3ccccc3)C(=O)N2[C@H]1C(=O)O` [AMPICILLIN], the MIC was found to be 16400 µg/mL (≈ 46900 µM) against Escherichia coli [1], 32 µg/mL (≈ 91.6 µM) with Escherichia coli [14], 16400 µg/mL (≈ 46900 µM) against Escherichia coli [15] and 16400 µg/mL (≈ 46900 µM) with Escherichia coli [16]. The Activity with Escherichia coli [2], in the assay on Escherichia coli [3], with Escherichia coli [4], in the assay on Escherichia coli [5], with Escherichia coli [6] and in the assay with Escherichia coli [7] was 5% throughout. Moreover, the figures for the Activity with Escherichia coli [8], in the assay with Escherichia coli [9] and in the assay on Escherichia coli [10] were 95%, 42% and 72%, respectively. Moreover, the inhibition at 4096 µg/mL in the assay with Escherichia coli [11] was 25%; in the assay on Escherichia coli [12], 78%; in the assay on Escherichia coli [13], 36%.

As for `CC(C)(O/N=C(\C(=O)N[C@@H]1C(=O)N2C(C(=O)[O-])=C(C[n+]3ccccc3)CS[C@H]12)c1csc(N)n1)C(=O)O` [CEFTAZIDIME], the MIC against Escherichia coli [1] was 512 µg/mL (≈ 937 µM); against Escherichia coli [14], 1 µg/mL (≈ 1.83 µM); in the assay with Escherichia coli [15], 8 µg/mL (≈ 14.6 µM); against Escherichia coli [16], above 1020 µg/mL. Moreover, the inhibition at 2 µg/mL with Escherichia coli [17] turned out to be 99%. Besides, in the assay with Escherichia coli [18], the Activity is given as 100%. The inhibition at 256 µg/mL in the assay on Escherichia coli [19] was 17%; with Escherichia coli [21], 88%. Moreover, the inhibition at 64 µg/mL with Escherichia coli [20] is 64%.
